The values that follow come from patent publication US4663458A, “Water soluble salt composition of m-AMSA” (Bristol-Myers Company, priority 1985, dated 1987).

Counter-ions that a name gives are not always drawn.

Series [1] in a line: Aqueous solubility of m-AMSA base and salts.
Series [2] in a line: Storage stability / precipitation of m-AMSA lactate aqueous solutions.
For series [3] the following is noted: prior art; cited from earlier work.
The next series concerns animal tumor systems. Particulars: Cain et al., Europ. J. Cancer 10:539-549 (1974); cited from earlier work.

Turning to `COc1cc(NS(C)(=O)=O)ccc1Nc1c2ccccc2nc2ccccc12` [m-AMSA L(+)-lactate monohydrate salt], in series [1], the reconstitution rates result was “excellent”. Besides, in series [1] (water), the solubility is about 2500 µg/mL. Moreover, the stability result in series [2] (for use as an intravenous drug) is recorded as “the stability necessary for use as an intravenous drug”.
Regarding `COc1cc(NS(C)(=O)=O)ccc1Nc1c2ccccc2nc2ccccc12` [m-AMSA lactate salts], in series [2] (concentrations as high as 5 mg/ml, extended storage at 24° C.), the “precipitation under extended storage” value was “can result in precipitates”.
Regarding `COc1cc(NS(C)(=O)=O)ccc1Nc1c2ccccc2nc2ccccc12` [m-AMSA, 4'9-(acridinylamino) methanesulfon-m-anisidide], the solubility in water entry in series [3] is “very limited solubility in water”. In addition, the antitumor activity result in the series with animal tumor systems was “significant antitumor activity”.
In the case of `COc1cc(NS(C)(=O)=O)ccc1Nc1c2ccccc2nc2ccccc12` [monohydrochloride], the solubility in water entry in series [3] is given as “insufficiently water-soluble”.
In the case of `COc1cc(NS(C)(=O)=O)ccc1Nc1c2ccccc2nc2ccccc12` [monomethanesulfonate], the solubility in water entry in series [3] is on record as “insufficiently water-soluble”.

In general, solubility refers to the dissolved amount per volume that the medium holds.
